Results on 26 molecules are retold here after PubChem BioAssay (NCI).

“And” between values parts separate entries of the source, which are not always exact repeats. Equal entries are not always repeated.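 Briefly, cells in 96-well plates were exposed to five compound concentrations for 48 h, and endpoints were estimated by linear interpolation. GI50 marks 50% less growth. At the TGI there is no net growth.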

For this assay, the system named is MDA-MB-468 breast. Briefly: NCI-60 cell line screen, 48 h.
Regarding `CCCC(=O)NC(c1ccc2c(c1)OC(F)(F)O2)c1cc(C)c2cccnc2c1O` (configuration not stated), the GI50 is 0.37 µM and the TGI came to 2.21 µM.

As for `CN(C)CCCSc1ccccc1NC1=C(Cl)C(=O)C(Nc2ccccc2SCCCN(C)C)=C(Cl)C1=O`, the GI50 was 1.52 µM and the TGI amounted to 3.22 µM.

As for `COc1cccc(-c2cc(=O)c3cc(N4CCOCC4)ccc3[nH]2)c1`, the GI50 is 0.927 µM and the TGI was over 100 µM.

As for `CC(C)(C)c1cc(/C=N/NC(=O)c2ccccc2NC(=O)c2cccs2)c(O)c(C(C)(C)C)c1`, the GI50 was 0.386 µM and the TGI was 20.5 µM.

In the case of `C#CC(=O)Nc1cccc2c1cc(C)n2-c1nc2c(c(NCc3ccccc3)n1)CCCC2`, the GI50 is 0.211 µM and the TGI was 0.596 µM.

As to `O=C1c2cccnc2C(=O)c2c1c(C(=O)OCCN1CCCCC1)c1ccccn21`, the GI50 was 0.869 µM and the TGI worked out at 2.84 µM.

For the molecule `NC(=S)N/N=C1\c2ccccc2-c2c(F)c(F)c(F)c(F)c21`, the GI50 is 2.49 µM and the TGI is 5.14 µM.

For `CC(C)(c1ccccc1)c1cc(O)c(C(C)(C)c2ccccc2)cc1O`, the GI50 was 0.376 µM and the TGI worked out at 3.72 µM.

`COc1cc(/C=C2\CCC/C(=C\c3ccc(O)c(OC)c3)C2=O)ccc1O`: the GI50 is 1.46 µM and the TGI stood at 3.48 µM.

As for `CCc1cnn2c(NCc3ccc[n+]([O-])c3)cc(N3CCCC[C@H]3CCO)nc12`, the GI50 is < 0.01 µM and 0.00221 µM; the TGI was < 0.01 µM and 0.00588 µM.

`COC(=O)c1cc2oc(/C=C3/SC(=S)N(N)C3=O)cc2n1Cc1ccccc1`: the GI50 was 74.4 µM and the TGI was over 100 µM.

For the molecule `CC1(C)N=C(N)N=C(N)N1c1ccc(Cl)cc1`, the GI50 is 0.873 µM and the TGI was over 100 µM.

Regarding `N#Cc1c(NC(=O)c2ccc(F)cc2)sc2c1CCCC2`, the GI50 was over 25 µM and the TGI is over 25 µM.

For `COc1cc(N2C(=O)[C@H](c3ccccc3)C2c2ccc(SC)cc2)cc(OC)c1OC` (some centres not stated), the GI50 was 0.0271 µM and the TGI is 0.0929 µM.

`Cn1cc(-c2nc(-c3c[nH]c4ncccc34)cs2)c2ccccc21`: the GI50 was 0.314 µM and the TGI was 0.82 µM.

For `COc1ccc(/C=C2\COc3ccc(O)c(O)c3C2=O)c(OC)c1OC`, the GI50 is 2.18 µM and the TGI is 6.28 µM.

`CN(C)CC(=O)Nc1ccc2ncnc(Nc3ccc(Oc4cccc(C(F)(F)F)c4)c(Cl)c3)c2c1`: the GI50 is 1.28 µM and the TGI was 3.23 µM.

Take `COc1cc(CNCCN2C(=O)c3ccc4c5c(ccc(c35)C2=O)C(=O)N(CCNCc2cc(OC)c(OC)c(OC)c2)C4=O)cc(OC)c1OC`: the GI50 was 0.123 µM and the TGI was 0.323 µM.

On to `COc1ccc(C2CC(c3ccc(Nc4ccnc5cc(Cl)ccc45)cc3)=NN2C=O)cc1` (configuration not stated), for which the GI50 was 1 µM and the TGI is 6.84 µM.

Turning to `COC(=O)c1ccccc1CC1Cc2cc3c(cc2C1=O)CCC3` (configuration not stated), the GI50 was 10.6 µM and the TGI is 42.1 µM.

On to `CC(=O)CC/C=C(\C)[C@H](O)[C@H](C)C(=O)O[C@H]1C[C@H](C)C=C2C=C[C@@]3(C)O[C@@H](O)CC(=O)[C@]3(C)[C@H]21`, for which the GI50 was 0.454 µM and the TGI amounted to 2 µM.

For `COCCOC1=CC(=O)c2c(O)ccc(O)c2C1=O`, the GI50 was 1.27 µM and the TGI was determined as 2.78 µM.

Turning to `Cn1c(=O)nc2n(-c3ccc(Cl)cc3)c3cc(Cl)ccc3nc-2c1=O`, the GI50 is 1.59 µM and the TGI was found to be 3.07 µM.

For `Oc1c(Cl)cc(Cl)cc1/C=N/Nc1nnc(N/N=C/c2cc(Cl)cc(Cl)c2O)c2ccccc12`, the GI50 is 0.337 µM and the TGI worked out at 1.88 µM.

With `CC(C)(C)CC(C)(C)c1ccc(O)c(Cc2ccc(Cl)cc2Cl)c1`, the GI50 is 1.66 µM and the TGI came to 3.08 µM.

As for `CC(C)(C)c1cc(NC(=O)Nc2ccc(-c3cn4c(n3)sc3cc(OCCN5CCOCC5)ccc34)cc2)no1`, the GI50 was 3.64 µM and 2.55 µM and > 10 µM; the TGI is 12.2 µM and 14.2 µM and > 10 µM.
